Reference: patent publication US12116343B2, “Inhibitors of APOL1 and methods of using same” (Vertex Pharmaceuticals Incorporated, priority 2020, dated 2024)
Like-named read-outs stand apart in the source and are kept apart here.

Target: T1, G1 APOL1 (Homo sapiens, UniProt O14791, I384M/S342G)
T1 construct: expressed in transfected cells
T1 sequence (O14791 28-398 S342G/I384M): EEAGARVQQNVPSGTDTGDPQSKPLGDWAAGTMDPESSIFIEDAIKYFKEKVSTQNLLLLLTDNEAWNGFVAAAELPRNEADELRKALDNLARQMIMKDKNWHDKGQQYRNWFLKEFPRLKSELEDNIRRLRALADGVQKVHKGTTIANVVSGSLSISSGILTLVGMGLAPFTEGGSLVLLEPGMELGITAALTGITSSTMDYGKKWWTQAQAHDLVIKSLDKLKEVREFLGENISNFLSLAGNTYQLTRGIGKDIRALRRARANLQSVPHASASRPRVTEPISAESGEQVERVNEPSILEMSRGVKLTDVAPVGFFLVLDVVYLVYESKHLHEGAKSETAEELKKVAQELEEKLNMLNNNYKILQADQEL
Test: Acute APOL1 Thallium Assay with inducible stable clones of HEK 293 cells
Assay type: cell-based
Settings: read-out: Thallium Assay (IC50)
How it was run: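 Readout: Tl+-triggered fluorescence, FLIPR, reflecting potassium flux through APOL1 pores after cells take up an AM-ester thallium indicator. Cells: HEK T-Rex stable clone G1 DC3.25, APOL1 G1 induced by tetracycline, seeded 26000 per well.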

[1] = HEK 293 T-Rex cells expressing G1 APOL1

IC50 [1] | IC50 (Table 24, Compounds 287 to 465) | Compound
250 to 1000 nM | – | O=C(N[C@@H](CO)C(F)F)[C@H]1C[C@@H](c2c(-c3ccc(F)cc3)[nH]c3c(F)cc(F)cc32)C1 [Compound 276]
> 1000 nM | – | O=C(NC1CC(O)C1)[C@H]1C[C@@H](c2c(-c3ccc(F)cc3)[nH]c3c(F)cc(F)cc32)C1 (some centres unmarked) [Compound 239]
> 1000 nM | – | O=C(N[C@H]1CCOC1)[C@H]1C[C@@H](c2c(-c3ccc(F)cc3)[nH]c3c(F)cc(F)cc32)C1 [Compound 246]
– | 250 to 1000 nM | CON(C)C(=O)CNC[C@H]1C[C@H](c2c(-c3ccc(F)cc3)[nH]c3c(F)cc(F)cc32)C1 [Compound 450]
– | > 1000 nM | O=C(NC[C@H]1C[C@H](c2c(-c3ccc(F)cc3)[nH]c3c(F)cc(F)cc32)C1)N[C@H]1C[C@H](O)C1 [Compound 411]
– | > 1000 nM | C[C@@H](O)CNC(=O)N[C@H]1C[C@H](c2c(-c3ccc(F)cc3)[nH]c3c(F)cc(F)cc32)C1 [Compound 296]
250 to 1000 nM | – | O=C(NCCO)C1CC(c2c(-c3ccc(F)cc3)[nH]c3c(F)cc(C(F)(F)F)cc23)C1 (centres unmarked) [Compound 279]
> 1000 nM | – | O=C1NCC[C@H]1NC(=O)[C@H]1C[C@@H](c2c(-c3ccc(F)cc3)[nH]c3c(F)cc(F)cc32)C1 [Compound 236]
– | > 1000 nM | CC1(NC(=O)C2CC(Cc3c(-c4ccc(F)cc4)[nH]c4c(F)cc(F)cc34)C2)CCNC1=O (centres unmarked) [Compound 308]
– | > 1000 nM | O=C(NCC1CCOC1)O[C@H]1C[C@H](c2c(-c3ccc(F)cc3)[nH]c3c(F)cc(F)cc32)C1 (some centres unmarked) [Compound 384]
– | > 1000 nM | O=C(NC1CCOC1)O[C@H]1C[C@H](c2c(-c3ccc(F)cc3)[nH]c3c(F)cc(F)cc32)C1 (some centres unmarked) [Compound 382]
– | > 1000 nM | O=C(NC[C@H](O)C(F)(F)F)NC[C@H]1C[C@H](c2c(-c3ccc(F)cc3)[nH]c3c(F)cc(F)cc32)C1 [Compound 406]
– | > 1000 nM | O=C(NC[C@H]1C[C@H](c2c(-c3ccc(F)cc3)[nH]c3c(F)cc(F)cc32)C1)NC1CC(O)C1 (some centres unmarked) [Compound 420]
> 1000 nM | – | O=C(N[C@@H]1CCOC1)[C@H]1C[C@@H](c2c(-c3ccc(F)cc3)[nH]c3c(F)cc(F)cc32)C1 [Compound 269]
– | > 1000 nM | Cn1cc(CNC(=O)O[C@H]2C[C@H](c3c(-c4ccc(F)cc4)[nH]c4c(F)cc(F)cc43)C2)nn1 [Compound 387]
> 1000 nM | – | O=C1NC[C@@H](O)[C@@H]1NC(=O)[C@H]1C[C@@H](c2c(-c3ccc(F)cc3)[nH]c3c(F)cc(F)cc32)C1 [Compound 277]
250 to 1000 nM | – | O=C(NC(CO)(CO)CO)[C@H]1C[C@@H](c2c(-c3ccc(F)cc3)[nH]c3c(F)cc(F)cc32)C1 [Compound 273]
– | > 1000 nM | O=C(NCc1cnco1)C1CC(Cc2c(-c3ccc(F)cc3)[nH]c3c(F)cc(F)cc23)C1 (centres unmarked) [Compound 337]
– | > 1000 nM | CC(O)(CO)CNC(=O)O[C@H]1C[C@H](c2c(-c3ccc(F)cc3)[nH]c3c(F)cc(F)cc32)C1 (mixture of isomers) [Compound 378]

IC50 [1] | IC50 (Table 24, Compounds 287 to 465) | Compound
250 to 1000 nM | – | CC(C)(CO)NC(=O)[C@H]1C[C@@H](c2c(-c3ccc(F)cc3)[nH]c3c(F)cc(F)cc32)C1 [Compound 256]
> 1000 nM | – | O=C1NCCCC1NC(=O)[C@H]1C[C@@H](c2c(-c3ccc(F)cc3)[nH]c3c(F)cc(F)cc32)C1 (some centres unmarked) [Compound 249]
250 to 1000 nM | – | Cn1cnc(CNC(=O)C2(C)CC(c3c(-c4ccc(F)cc4)[nH]c4c(F)cc(F)cc34)C2)c1 (mixture of isomers) [Compound 282]
– | > 1000 nM | O=C(NCC1(O)CCCC1)C1CC(Cc2c(-c3ccc(F)cc3)[nH]c3c(F)cc(F)cc23)C1 (centres unmarked) [Compound 315]
– | > 1000 nM | O=C(N[C@@H](CO)C(F)(F)F)C1CC(Cc2c(-c3ccc(F)cc3)[nH]c3c(F)cc(F)cc23)C1 (some centres unmarked) [Compound 306]
> 1000 nM | – | O=C1CN(C(=O)[C@H]2C[C@@H](c3c(-c4ccc(F)cc4)[nH]c4c(F)cc(F)cc43)C2)CCN1 [Compound 275]
– | > 1000 nM | O=C(NC[C@H]1C[C@H](c2c(-c3ccc(F)cc3)[nH]c3c(F)cc(F)cc32)C1)N1CCC[C@@H]1CO [Compound 405]
– | > 1000 nM | O=C(NC1CC(O)C1)O[C@H]1C[C@H](c2c(-c3ccc(F)cc3)[nH]c3c(F)cc(F)cc32)C1 (some centres unmarked) [Compound 383]
> 1000 nM | – | O=C(CNC(=O)[C@H]1C[C@H](c2c(-c3ccc(F)cc3)[nH]c3c(F)cc(F)cc32)C1)NCCO [Compound 231]
> 1000 nM | – | COCCNC(=O)[C@H]1C[C@@H](c2c(-c3ccc(F)cc3)[nH]c3c(F)cc(F)cc32)C1 [Compound 242]
– | > 1000 nM | C[C@H](CO)NC(=O)NC[C@H]1C[C@H](c2c(-c3ccc(F)cc3)[nH]c3c(F)cc(F)cc32)C1 [Compound 409]
– | > 1000 nM | CC[C@H](NCC1CC(c2c(-c3ccc(F)cc3)[nH]c3c(F)cc(F)cc23)C1)C(=O)NCC(F)(F)F (some centres unmarked) [Compound 443]
250 to 1000 nM | – | C[C@@H](CO)NC(=O)[C@H]1C[C@@H](c2c(-c3ccc(F)cc3)[nH]c3c(F)cc(F)cc32)C1 [Compound 271]
250 to 1000 nM | – | O=C(NCC(F)F)[C@H]1C[C@@H](c2c(-c3ccc(F)cc3)[nH]c3c(F)cc(F)cc32)C1 [Compound 238]
– | 250 to 1000 nM | O=C(CC1CC(c2c(-c3ccc(F)cc3)[nH]c3c(F)cc(F)cc23)C1)NC1(CO)CC1 (centres unmarked) [Compound 453]
– | > 1000 nM | O=C(NC[C@H]1C[C@H](c2c(-c3ccc(F)cc3)[nH]c3c(F)cc(F)cc32)C1)N[C@H]1CC[C@H]1O [Compound 394]
– | > 1000 nM | CC1(CNC(=O)C2CC(Cc3c(-c4ccc(F)cc4)[nH]c4c(F)cc(F)cc34)C2)CCOC1 (mixture of isomers) [Compound 332]
– | 250 to 1000 nM | CNC(=O)NC[C@H]1C[C@H](c2c(-c3ccc(F)cc3)[nH]c3c(F)cc(F)cc32)C1 [Compound 391, 1-(((1r,3r)-3-(5,7-difluoro-2-(4-fluorophenyl)-1H-indol-3-yl)cyclobutyl)methyl)-3-methylurea]
– | > 1000 nM | O=C(NCc1cocn1)C1CC(Cc2c(-c3ccc(F)cc3)[nH]c3c(F)cc(F)cc23)C1 (centres unmarked) [Compound 341]

IC50 [1] | IC50 (Table 24, Compounds 287 to 465) | Compound
– | > 1000 nM | O=C(NC1(CCO)CC1)C1CC(Cc2c(-c3ccc(F)cc3)[nH]c3c(F)cc(F)cc23)C1 (centres unmarked) [Compound 311]
> 1000 nM | – | O=C(NC(CO)CO)[C@H]1C[C@@H](c2c(-c3ccc(F)cc3)[nH]c3c(F)cc(F)cc32)C1 [Compound 241]
– | 250 to 1000 nM | CNC(=O)CN[C@H]1C[C@H](c2c(-c3ccc(F)cc3)[nH]c3c(F)cc(F)cc32)C1 [Compound 291]
> 1000 nM | – | O=C([C@H]1C[C@H](c2c(-c3ccc(F)cc3)[nH]c3c(F)cc(F)cc32)C1)N1CCOC(CO)C1 (some centres unmarked) [Compound 152]
– | > 1000 nM | O=C(N[C@H]1COC[C@@H]1O)O[C@H]1C[C@H](c2c(-c3ccc(F)cc3)[nH]c3c(F)cc(F)cc32)C1 [Compound 389]
– | > 1000 nM | O=C(NC(CO)CO)N[C@H]1C[C@H](c2c(-c3ccc(F)cc3)[nH]c3c(F)cc(F)cc32)C1 [Compound 298]
– | > 1000 nM | CON(C)C(=O)CN[C@H]1C[C@H](c2c(-c3ccc(F)cc3)[nH]c3c(F)cc(F)cc32)C1 [Compound 292]
– | > 1000 nM | O=C(NCc1ccoc1)C1CC(Cc2c(-c3ccc(F)cc3)[nH]c3c(F)cc(F)cc23)C1 (centres unmarked) [Compound 317]
– | > 1000 nM | CC(CO)(CO)NC(=O)NC[C@H]1C[C@H](c2c(-c3ccc(F)cc3)[nH]c3c(F)cc(F)cc32)C1 [Compound 397]
– | > 1000 nM | O=C(CC1CC(c2c(-c3ccc(F)cc3)[nH]c3c(F)cc(F)cc23)C1)N[C@H]1CCNC1=O (some centres unmarked) [Compound 456]
– | > 1000 nM | O=C(CC1CC(c2c(-c3ccc(F)cc3)[nH]c3c(F)cc(F)cc23)C1)N[C@H](CO)C(F)(F)F (some centres unmarked) [Compound 461]
– | 250 to 1000 nM | CC(CO)NC(=O)O[C@H]1C[C@H](c2c(-c3ccc(F)cc3)[nH]c3c(F)cc(F)cc32)C1 (mixture of isomers) [Compound 356]
> 1000 nM | – | CC[C@@H](CO)NC(=O)[C@H]1C[C@@H](c2c(-c3ccc(F)cc3)[nH]c3c(F)cc(F)cc32)C1 [Compound 257]
– | > 1000 nM | CC(C)(NCC1CC(c2c(-c3ccc(F)cc3)[nH]c3c(F)cc(F)cc23)C1)C(N)=O (centres unmarked) [Compound 440]
– | > 1000 nM | O=C(NCC1(O)CCC1)C1CC(Cc2c(-c3ccc(F)cc3)[nH]c3c(F)cc(F)cc23)C1 (centres unmarked) [Compound 322]
– | > 1000 nM | CS(=O)(=O)CCNC(=O)C1CC(Cc2c(-c3ccc(F)cc3)[nH]c3c(F)cc(F)cc23)C1 (centres unmarked) [Compound 316]
– | 250 to 1000 nM | O=C(N[C@@H]1CCNC1=O)O[C@H]1C[C@H](c2c(-c3ccc(F)cc3)[nH]c3c(F)cc(F)cc32)C1 [Compound 359]
– | 250 to 1000 nM | COCC(C)NC(=O)O[C@H]1C[C@H](c2c(-c3ccc(F)cc3)[nH]c3c(F)cc(F)cc32)C1 (mixture of isomers) [Compound 360]
